# Assay results reported in paper PMC8999133, “Resemblance-Ranking Peptide Library to Screen for Binders to Antibodies on a Peptidomic Scale” (International Journal of Molecular Sciences, 2022).
# Columns and labels:
# [1] = test system: rituximab; settings: forward and reverse sequences; not bound by other anti-CD20 mAbs; cited from earlier work
# From the text: The peptide […] from the resem ...
# [2] = test system: rituximab (RTX); test: First screen of the resemblance-ranking peptide library with RTX, fluorescent immunostaining; type: binding; settings: RTX 30 µg/mL; among 160,000 peptides
# Protocol: Peptide microarrays: A peptide library of 160,000, peptides as well other peptide microarrays for the substitutions and the KD analysis, were fabricated via the ultra-high-density peptide microarray technology of AXXELERA (Karlsruhe, Germany) [49]. The AXXELERA technology allows for the 30 µm-sized square peptide spots with a pitch of 60 µm that corresponds to ca. 28,000 spots/cm^2.
# Immunostaining: Peptide microarrays were incubated with the monoclonal anti-CD20 antibody rituximab (Sigma-Aldrich, Steinheim, Germany) with concentrations depending on the type of experiment, diluted in PBS-T (Phosphate Buffered Saline with Tween) overnight at 4 °C. A rituximab concentration of 30 µg/mL was used for the first screen of the entire resemblance-ranking peptide library. Then, the peptide chips were stained with the fluorescently labeled secondary anti-human-IgG antibodies (Jackson ImmunoResearch, Philadelphia, PA, USA). The signals from the spots were read out with the confocal scanner Innoscan 1100 AL. The scans were performed in the red channel (635 nm), with a resolution of 2 µm/pixel, a speed of 35 µm/s, and a PMT gain of 9.
Substance,binding to rituximab [1],ratio to the maximum signal value [2]
ELWKPW,bind rituximab,
LWKPWLQPCC,,0.13
WPKWLE,bind rituximab,
